Data taken from patent US20150265644A1, “THERAPEUTIC METHODS AND COMPOSITIONS FOR TREATING DIABETES UTILIZING DITERPENOID COMPOUNDS” (Orient Europharma Co., Ltd., priority 2014, published 2015).

Tested on: liver
Assay: Glycogen content in liver in vivo
Set-up: species or system mice
Conditions: 10 mgkg^−1 i.p., 60 minutes
Procedure: The mice were injected with borapetoside A (10 mgkg^−1, interperitoneal) for 60 minutes or insulin (0.5 IUkg^−1, interperitoneal) for 30 minutes. After the treatment, the anesthetic mice were sacrificed by cervical dislocation to collect the soleus muscle and liver. About 40 mg of each sample was dissolved in 1 mol/L KOH at 75° C. for 30 min. The dissolved homogenate was neutralized by glacial acetic acid and then incubated overnight in acetate buffer (0.3 mol/L sodium acetate, pH 4.8) containing amyloglucosidase (Sigma, St. Louis, Mo.). The mixture was then neutralized with 1 mol/L NaOH to stop the reaction. The glycogen contents in the tissue samples were determined as μg of glucose per mg of tissue (wet weight).

## C[C@@]12C[C@@H](c3ccoc3)OC(=O)[C@@H]1C[C@@H]1OC(=O)[C@@]3(O)[C@@H](O[C@@H]4O[C@H](CO)[C@@H](O)[C@H](O)[C@H]4O)CC[C@@H]2[C@@]13C [borapetoside A]
Mice with type 1 DM
  glycogen content in liver, % of vehicle control: 196.9±15.6%
Mice with type 2 DM
  glycogen content in liver, % of vehicle control: 146.1±12.0%
Normal mice
  glycogen content in liver, % of vehicle control: 257.8±15.8%
